Laboratory results reported in publication PMC10650486, “Fluoroquinolone-Based Organic Salts (GUMBOS) with Antibacterial Potential” (International Journal of Molecular Sciences, 2023).
“Also recorded” adds a separate entry of the source.

Assays:
E. coli O157:H7 = tested on: E. coli O157:H7; set-up: method as in PMID 23447139; details: same E. coli O157:H7 strain; cited from earlier work
[1] = tested on: L929 mouse fibroblast cells; experiment: Cytotoxicity evaluation, resazurin reduction assay; type: cell-based; details: 24 h exposure
Experimental: To assess the impact of GUMBOS on cell viability, the resazurin assay was employed using L929 mouse fibroblast cells as described previously by Page et al.. The L929 cells were cultured at 37 °C in a 5% CO2 atmosphere, utilizing DMEM supplemented with 10% FBS and 1% streptomycin/gentamycin. Once the cell culture reached 70–80% confluence, it was detached using a 0.25% (w/v) trypsin-ethylenediaminetetraacetic acid (EDTA) solution. The cells were then subjected to centrifugation with the Heraeus Multifuge X1R centrifuge (Thermo Fisher Scientific; Waltham, MA, USA) and resuspended in fresh medium. Viable cell counts were obtained through a Neubauer chamber (Improved Neubauer Bright-Line, Boeco; Hamburg, Germany).
For experiments, L929 cells were seeded at a density of 5 × 10^4 cells per well in 96-well microplates and supplemented with DMEM medium. Plates were placed in a humidified incubator at 37 °C with 5% CO2 for 24 h to allow cell attachment and growth. Subsequently, the culture medium was replaced with different concentrations of each sample being tested. After 24h incubation, the medium was replaced with fresh culture medium containing 10% resazurin. Cells were then incubated for 4 h in the dark at 37 °C with 5% CO2 to allow resazurin conversion. Fluorescence of resorufin was measured using a plate reader (Synergy HT plate reader-Biotek Instruments, Winooski, VT, USA) with excitation at 560 nm and emission at 590 nm. Negative control wells contained only culture medium, while positive control wells contained the cation precursor, the active pharmaceutical ingredient. All experiments were conducted in triplicate.

S. aureus [2] = tested on: S. aureus; set-up: method as in earlier work; details: cited from earlier work
S. aureus [3] = details: cited from earlier work
E. coli = tested on: E. coli; set-up: method as in earlier work; details: cited from earlier work
[4] = cited from earlier work
[5] = Octanol/water partition coefficient, shake-flask method; type: physicochemical; details: for logKO/W ± SD: octanol/water, shake-flask, mean ± standard deviation
Experimental: Following synthesis and structural characterization of FQ-based GUMBOS, octanol/water partition coefficient (Ko/w) values were obtained through a shake-flask method with minor modifications. Initially, water and 1-octanol were saturated by agitation for 24 h at room temperature. GUMBOS were solubilized in 5 mL of water-saturated octanol (Ci), to which an equivalent volume of octanol-saturated water was added. This solution subjected to 24 h of agitation and the absorbance of the upper layer was measured at a wavelength of 280 nm. Sample concentration in octanol (Co) was determined through a calibration curve, which was created using six solutions of different concentrations (4–30 μmol·L^−1) of GUMBOS in 1-octanol. Later, GUMBOS concentration in water (Cw) were obtained by the following equation Ci − C0 = Cw. Octanol/water partition coefficient (Ko/w) values were then calculated using Ko/w = Co/Cw. Data were representative of three replicates executed for each of the GUMBOS.

[6] = Thermogravimetric analysis (TGA), thermal stability; type: physicochemical; details: for Tonset / Tpeak / Tstart: 10 °C min^−1, N2 atmosphere; for Residue at 500 °C: mass residue remaining at 500 °C; for Tpeak: temperature at highest degradation rate; for Tstart: temperature where weight loss starts
Experimental: Thermogravimetric analysis (TGA) was executed using a Hi-Res modulated TGA 2950 thermogravimetric analyzer (TA Instruments, New Castle, DE, USA) and curves were obtained for all GUMBOS. Approximately 1-3 mg of GUMBOS was placed in a platinum pan and heated from 25 °C to 575 °C at a slow heating rate of 10 °C min^-1. Some characteristic parameters were extrapolated. For DSC and TGA, onset temperatures (Tonset) were determined as the temperature value matching the intersection point of the extrapolated initial baseline and the tangent or line through the linear section of the leading edge of the Tpeak point where the Tpeak was the temperature value at the highest degradation rate. For TGA, additional data were collected such as the temperature value where weight loss starts ([…]), and the percentage of mass residue remaining at 500 °C which allows evaluation of the short-term stability. All these parameters were extrapolated using the software NETZSCH Proteus® version 6.1081 (Netzsch-Gerätebau GmbH, Selb, Germany) for DSC analysis and Universal Analysis 2000 version 4.5A (TA Instruments-Waters LLC, New Castle, DE, USA) for TGA analysis.

[7] = tested on: Staphylococcus aureus subsp. aureus Rosenbach ATCC 25923; experiment: Antibacterial susceptibility testing, broth microdilution, bacterial growth by absorbance at 630 nm; type: cell-based
Experimental: To evaluate the antimicrobial profile, a study was performed using the broth microdilution standard method with minor modifications using DMSO as solvent. Standard laboratory strains of Gram-positive Staphylococcus aureus subsp. aureus Rosenbach ATCC 25923 and Gram-negative Escherichia coli O157:H7 were studied. TSB was used as the culture medium for bacteria and samples with bacteria in media were considered positive controls.
Antibacterial activity of GUMBOS was evaluated by comparing it with negative controls, as well as with the antibacterial activity of the parent compounds, [Cip][HCl] and [Mox][HCl]. […] These values are determined through laboratory testing and can vary depending on the testing methodology and conditions, thus the range increase in this study to 25 mg·L^−1. Stock solutions were prepared using water for water-soluble compounds while non-water soluble compounds were reconstituted using a deionized water solution containing 5% DMSO [96]. Following that, the compounds were diluted using fresh tryptic soy broth (TSB) to achieve desired concentrations. Initially, agar media was used to grow additional bacteria to correlate absorbance readings to microbial counts. Then, a solution of 0.1 mL of S. aureus added to 10 mL of TSB was incubated at 37 °C for 24 h and repeated for three more days until enough bacteria was obtained. After centrifugation and washing steps with PBS (1×) solution until obtaining a homogenized pellet, the inoculum was then diluted to 0.06 absorbance at 630 nm or 0.5 McFarland [97]. After compounds were diluted in TSB, 100 μL of samples with 100 μL of S. aureus inoculum were then transferred to a 96-well flat bottom microtitre plate (TPP, Switzerland) which was sealed and left in incubation at 37 °C for 24 h. Absorbance was read at 630 nm with a BioTek universal microplate reader (Agilent Technologies, VT, USA) to determine the turbidity in the wells [97, 98]. Three wells were prepared per sample. To ensure the viability and growth of bacteria in the culture media, negative controls were conducted along with a positive culture using the media containing only the bacteria. [Cip][HCl] served as the reference antibacterial agent.

[8] = 50 mg·L^−1 (highest concentration)

SMILES	cytotoxicity to L929 cells (cell viability) [1, 8]	Tonset [6]	Residue at 500 °C [6]	Tpeak [6]	Tstart [6]	also measured
CC1(C)SC2C(NC(=O)C(N)c3ccccc3)C(=O)N2C1C(=O)O.CC1(C)SC2C(NC(=O)C(N)c3ccccc3)C(=O)N2C1C(=O)O.N=C(NCCCCCCNC(=N)NC(=N)Nc1ccc(Cl)cc1)NC(=N)Nc1ccc(Cl)cc1 [chlorhexidine di-ampicillin]	–	–	–	–	–	concentrations at which growth was inhibited (E. coli O157:H7): 0.06 to 0.12 mg/L
c1ccc([B-](c2ccccc2)(c2ccccc2)c2ccccc2)cc1 [[Na][TPB], sodium tetraphenylborate, reference compound]	–	–	–	–	–	cytotoxicity to L929 cells (cell viability) ([1]; two highest concentrations (25 and 50 mg·L^−1)): cytotoxic
COc1c(N2C[C@@H]3CCCN[C@@H]3C2)c(F)cc2c(=O)c(C(=O)O)cn(C3CC3)c12 [[Mox], moxifloxacin]	–	–	–	–	–	epidemiologic cutoff value (ECOFF) (S. aureus [2]): 0.25 mg·L^−1; MIC (S. aureus [3]): 0.032 to 2 µg/mL; epidemiologic cutoff value (ECOFF) (E. coli): 0.25 mg·L^−1; logKO/W [4]: −0.28
O=C(O)c1cn(C2CC2)c2cc(N3CCNCC3)c(F)cc2c1=O [[Cip], ciprofloxacin]	–	–	–	–	–	epidemiologic cutoff value (ECOFF) (S. aureus [2]): 2 mg·L^−1; epidemiologic cutoff value (ECOFF) (E. coli): 0.06 mg·L^−1; logKO/W [4]: −0.13
O=C(O)c1cn(C2CC2)c2cc(N3CC[NH2+]CC3)c(F)cc2c1=O.c1ccc([B-](c2ccccc2)(c2ccccc2)c2ccccc2)cc1 [[Cip][TPB]]	some levels of cell toxicity	117.85 °C	36.93%	122.95 °C	98.94 °C	logKO/W ± SD [5]: −0.464 ± 0.006
C[C@H](CCC(=O)O)[C@H]1CC[C@H]2[C@@H]3CC[C@@H]4C[C@H](O)CC[C@]4(C)[C@H]3C[C@H](O)[C@]12C.O=C(O)c1cn(C2CC2)c2cc(N3CCNCC3)c(F)cc2c1=O [[Cip][Dxc]]	some levels of cell toxicity; also recorded: slight toxicity	326.23 °C	19.75%	332.30 °C	211.93 °C	logKO/W ± SD [5]: −1.110 ± 0.018; relative hydrophobicity from log KO/W ([5]; ranking within the [Cip]-based or [Mox]-based GUMBOS): most hydrophilic; antibacterial performance (bacterial growth) against S. aureus ([7]; 0.25 mg·L^−1, 24 h exposure, Figure 4a): least antimicrobial agent of all tested samples; antibacterial performance (bacterial growth) against S. aureus ([7]; 25 mg·L^−1, 24 h exposure, Figure 4b): significant differences from their corresponding precursors; also recorded: least antimicrobial agent of all tested samples
COc1c(N2C[C@@H]3CCCN[C@@H]3C2)c(F)cc2c(=O)c(C(=O)O)cn(C3CC3)c12.O=S(=O)(NS(=O)(=O)C(F)(F)F)C(F)(F)F [[Mox][NTF2]]	slight toxicity	319.64 °C	24.57%	327.51 °C	297.72 °C	–
